# Measured values as given in publication PMC9532399, “The lysosomal transporter TAPL has a dual role as peptide translocator and phosphatidylserine floppase” (Nature Communications, 2022).
# Residue numbers refer to the chain shown, from its start.
# Assays:
# TAPL E456A mutant = experiment: Peptide transport assay, E456A; assay type: biochemical, mouse; settings: 9-mer 10 mM (sic), 3 mM ATP
# Description: (§1) Proteoliposomes for peptide transport assays were prepared according to the protocol of Zhao et al., with some modifications. Briefly, E. coli polar lipid extract dissolved in chloroform was dried under a gentle stream of nitrogen. The thin film of lipids was placed under a desiccator overnight to completely remove residual chloroform and then hydrated in 1X PBS buffer pH 7.4 (137 mM NaCl, 2.7 mM KCl, 8 mM Na2HPO4, and 2 mM KH2PO4) with 10 mM MgCl2 and 5% (v/v) glycerol. After water bath sonication at 22 °C for 5 min (Powersonic 610, KLEENTEK), the lipid solution was extruded using a Mini-Extruder equipped with a polycarbonate membrane filter (200 nm pore) (Avanti Polar Lipids, Inc.) to obtain unilamellar vesicles, which were destabilized with 0.36% (w/v) DM. The DM-purified protein and lipid suspension were mixed in a 1:50 (w/w) ratio. After incubation at 4 °C for 2 h, the mixture was treated with Bio-Beads SM-2 resin (60 and 120 mg, see above) at 4 °C for a total of 18 h to remove detergent. The proteoliposomes were collected by centrifugation at 200,000×g for 1.5 h at 4 °C and resuspended in the buffer described above.
# (§2) The peptide transport activity of ΔTMD0 was measured as described previously. Briefly, 50 μL of ΔTMD0-loaded proteoliposomes (~0.6 μg protein) were added into 200 μL reaction buffer containing 1X PBS pH 7.4, 3 mM ATP, and 10 mM MgCl2 in the presence or absence of 10 μM 5-IAF-labeled peptides. To investigate transport activity, the mixture was incubated at 37 °C for 10 min. The reaction was terminated by incubating the mixture for 20 min on ice. Proteoliposomes were collected by centrifugation at 200,000×g for 30 min and then washed twice with 1X PBS. The proteoliposomes were completely disrupted by adding 10% (w/v) SDS solution (final concentration, 2%). The transported peptide was measured using a microplate reader (Gemini XPS) with excitation at 485 nm and emission at 520 nm.
# TAPL Q298A mutant = experiment: Peptide transport assay, Q298A; assay type: biochemical, mouse; settings: 9-mer 10 mM (sic), 3 mM ATP
# Description: as §1, §2
# TAPL Y405A mutant = target: T1, TAPL Y405A mutant (Mus musculus, UniProt Q9JJ59, Y405A); experiment: Peptide transport assay, Y405A; assay type: biochemical; settings: 9-mer 10 mM (sic), 3 mM ATP
# T1 construct: thrombin cleavage site (C); eGFP (C); 10XHis (C); made in house; host or cells: Trichoplusia ni High Five (Hi5) insect cells, baculovirus (pVL1393)
# T1 sequence (Q9JJ59 143-762 Y405A): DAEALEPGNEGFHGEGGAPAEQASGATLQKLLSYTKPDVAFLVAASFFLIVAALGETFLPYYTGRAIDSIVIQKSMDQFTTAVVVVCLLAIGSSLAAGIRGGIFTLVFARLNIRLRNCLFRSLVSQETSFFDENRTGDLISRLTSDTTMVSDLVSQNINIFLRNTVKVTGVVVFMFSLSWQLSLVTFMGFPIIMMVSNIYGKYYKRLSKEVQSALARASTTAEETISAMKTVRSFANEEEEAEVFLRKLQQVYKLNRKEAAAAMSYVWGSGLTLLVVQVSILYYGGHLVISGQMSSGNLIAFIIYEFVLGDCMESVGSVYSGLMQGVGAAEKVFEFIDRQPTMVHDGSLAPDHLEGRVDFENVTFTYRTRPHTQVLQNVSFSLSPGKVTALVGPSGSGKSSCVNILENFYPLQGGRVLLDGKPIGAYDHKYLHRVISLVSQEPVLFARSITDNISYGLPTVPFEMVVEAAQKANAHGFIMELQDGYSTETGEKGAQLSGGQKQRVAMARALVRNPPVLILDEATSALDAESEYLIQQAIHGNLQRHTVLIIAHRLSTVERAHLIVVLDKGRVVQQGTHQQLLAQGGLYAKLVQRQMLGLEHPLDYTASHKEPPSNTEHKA
# Description: as §1, §2
# TAPL N301A mutant = experiment: Peptide transport assay, N301A; assay type: biochemical, mouse; settings: 9-mer 10 mM (sic), 3 mM ATP
# Description: as §1, §2
# mouse TAPL ΔTMD0 = target: T2, mouse TAPL ΔTMD0 (Mus musculus, UniProt Q9JJ59); experiment: Peptide transport assay, ΔTMD0 proteoliposomes; assay type: biochemical; settings: for Transport activity: peptide 10 mM (sic)
# T2 construct: thrombin cleavage site (C); eGFP (C); 10XHis (C); made in house; host or cells: Trichoplusia ni High Five (Hi5) insect cells, baculovirus (pVL1393)
# T2 sequence (Q9JJ59 143-762): T1 sequence (Q9JJ59 143-762 Y405A) with A263Y
# Description: as §1, §2
substance,measurement,setting,value
"RRYQNSTC^5-IAFL [9-mer, 5-IAF-labeled peptide of 9 residues (RRYQNSTC^5-IAFL)]",Transport activity,TAPL E456A mutant; replicate I,48.9147%
same,Transport activity,TAPL E456A mutant; replicate II,53.6761%
same,Transport activity,TAPL E456A mutant; replicate III,40.3825%
same,Transport activity,"TAPL E456A mutant; wild-type = 100%, mean n=3",47.6578%
same,Transport activity,TAPL Q298A mutant; replicate I,88.0035%
same,Transport activity,TAPL Q298A mutant; replicate II,84.2917%
same,Transport activity,TAPL Q298A mutant; replicate III,85.5798%
same,Transport activity,"TAPL Q298A mutant; wild-type = 100%, mean n=3",85.9583%
same,Transport activity,TAPL Y405A mutant; replicate I,18.1424%
same,Transport activity,TAPL Y405A mutant; replicate II,19.1407%
same,Transport activity,TAPL Y405A mutant; replicate III,12.1153%
same,Transport activity,"TAPL Y405A mutant; wild-type = 100%, mean n=3",16.4661%
same,Transport activity,TAPL N301A mutant; replicate I,112.671%
same,Transport activity,TAPL N301A mutant; replicate II,153.066%
same,Transport activity,TAPL N301A mutant; replicate III,131.453%
same,Transport activity,"TAPL N301A mutant; wild-type = 100%, mean n=3",132.396%
same,peptide transport,"mouse TAPL ΔTMD0; ATP-dependent, 5-IAF-labeled peptides",preferentially transported
same,Transport activity,"mouse TAPL ΔTMD0; + 3 mM ATP, 9-mer + ATP set at 100%, 37 °C 10 min, mean n=3",100%
same,Transport activity,"mouse TAPL ΔTMD0; + 3 mM ATP, replicate I",101.702%
same,Transport activity,"mouse TAPL ΔTMD0; + 3 mM ATP, replicate II",98.4079%
same,Transport activity,"mouse TAPL ΔTMD0; + 3 mM ATP, replicate III",99.8902%
same,Transport activity,"mouse TAPL ΔTMD0; no ATP, 9-mer + ATP set at 100%, mean n=3",5.331%
same,Transport activity,"mouse TAPL ΔTMD0; no ATP, replicate I",5.213%
same,Transport activity,"mouse TAPL ΔTMD0; no ATP, replicate II",5.414%
same,Transport activity,"mouse TAPL ΔTMD0; no ATP, replicate III",5.365%
